The record followed here is US10098924B1, “Anticancer extracts of Alpinia officinarum hance” (KING SAUD UNIVERSITY, priority 2018, dated 2018).

Type in all cases: cell-based
Test [1] deals with A-549 (Lung carcinoma) cells. Briefly: MTT cell viability assay, A-549 cells. The settings on record: Homo sapiens, A549, about 24 hours incubation. On the procedure:
(§1) Briefly, the cell lines were suspended in medium at concentration of about 5×10^4 cells per well in Corning® 96-well tissue culture plates and incubated for about 24 hours. Extracts prepared according to Example 1 were rehydrated, diluted ten times, and each dilution was added to a well of a 96-well plate (using six replicates). Six vehicle controls with media or 0.5% DMSO were run for each 96 well plate as a control. After incubation for about 24 hours, the number of viable cells was determined by the MTT assay method. Briefly, the media was removed from the 96-well plates and replaced with about 100 μl of fresh culture RPMI 1640 medium without phenol red, then about 10 μl of about 12 mM MTT (Sigma) stock solution (5 mg of MTT in about 1 mL of PBS) was added to each well, including the untreated controls. The 96-well plates were then incubated at about 37° C. and at about 5% CO2 for about 4 hours. An 85 μl aliquot of the media was removed from the wells, and 50 μl of DMSO was added to each well and mixed thoroughly with the pipette and incubated at about 37° C. for about 10 minutes. The optical density was measured at 590 nm with a microplate reader to determine the number of viable cells. The percentage of viability was calculated as: (ODt/ODc)×100%, where ODt is the mean optical density of wells treated with the tested sample and ODe is the mean optical density of untreated cells. […]

In test [2] the test system is CACO (colorectal carcinoma) cells. As to the kind of experiment: MTT cell viability assay, CACO cells. The settings on record: Homo sapiens, about 24 hours incubation. On the procedure:
as §1
In general terms: Formazan colour is commonly taken as a measure of viable cells.

The test system of test [3] is PC3 (prostate cancer) cells. As to the kind of experiment: MTT cell viability assay, PC3 cells. The settings on record: Homo sapiens, PC-3, about 24 hours incubation. As for the experimental part: as §1
The test system of test [4] is HeLa (Cervical carcinoma) cells. As to the kind of experiment: MTT cell viability assay, HeLa cells. The settings on record: Homo sapiens, about 24 hours incubation. As for the experimental part:
as §1

Test [5] has as its system HCT-116 (Colon carcinoma) cells. Briefly: MTT cell viability assay, HCT-116 cells. The settings on record: Homo sapiens, about 24 hours incubation. As for the experimental part:
as §1

Where a name gives a salt, the structure may show the parent alone.

On to `CC[C@]1(O)C[C@@H]2CN(CCc3c([nH]c4ccccc34)[C@@](C(=O)OC)(c3cc4c(cc3OC)N(C)[C@H]3[C@@](O)(C(=O)OC)[C@H](OC(C)=O)[C@]5(CC)C=CCN6CC[C@]43[C@@H]65)C2)C1` [Vinblastine Sulfate, vinblastine sulfate], for which the IC50 (in general, the concentration that inhibits the measured activity by half) in test [1] was 24.6 ± 0.7 µg/mL; in test [2], 30.3 ± 1.4 µg/mL; in test [3], 21.2 ± 0.9 µg/mL; in test [4], 59.7 ± 2.1 µg/mL; in test [5], 3.5 ± 0.2 µg/mL.
